44 compounds from ChEMBL document CHEMBL3877258, “Targeting cytochrome P450 (CYP) 1B1 with steroid derivatives” (Bioorg Med Chem Lett, 2016) can be followed below.

The target in the first data set is T1, CYP1B1 (Homo sapiens, UniProt Q16678).
T1 sequence (Q16678 whole entry): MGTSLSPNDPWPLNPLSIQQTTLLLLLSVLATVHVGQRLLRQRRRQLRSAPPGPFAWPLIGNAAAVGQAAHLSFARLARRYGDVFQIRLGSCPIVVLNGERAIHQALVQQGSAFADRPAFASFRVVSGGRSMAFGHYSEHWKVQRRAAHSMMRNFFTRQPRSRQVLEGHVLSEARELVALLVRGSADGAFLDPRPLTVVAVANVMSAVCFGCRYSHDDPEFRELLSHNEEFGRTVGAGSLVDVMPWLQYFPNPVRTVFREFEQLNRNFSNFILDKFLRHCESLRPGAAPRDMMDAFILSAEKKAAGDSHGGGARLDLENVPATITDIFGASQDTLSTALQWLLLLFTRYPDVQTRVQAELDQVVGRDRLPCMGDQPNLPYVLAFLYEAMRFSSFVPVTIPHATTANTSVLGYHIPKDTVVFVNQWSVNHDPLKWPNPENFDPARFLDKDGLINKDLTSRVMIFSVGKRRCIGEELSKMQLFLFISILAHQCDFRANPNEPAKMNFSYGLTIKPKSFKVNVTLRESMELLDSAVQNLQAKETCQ
As to the kind of experiment: Inhibition of recombinant human CYP1B1 expressed in bacterial microsomes co-expressing P450 reductase at 3 uM using 7-ethyl-O-resorufin as substrate after 45 mins in presence of NADPH by fluorescence assay relative to control. The note with it: probe 7-ethyl-O-resorufin.
On to `COc1ccc2c(c1)CC[C@@H]1[C@@H]2CC[C@]2(C)C(=O)CC[C@@H]12`, for which the inhibition – broadly, the share of the control response that was lost under treatment – at 0.75 h, 3 µM was 2%.

Consider `C[C@]12CC[C@@H]3c4cc(F)c(O)cc4CC[C@H]3[C@@H]1CC[C@@H]2O`, for which the inhibition at 0.75 h, 3 µM worked out at 28.7%. For `C[C@]12CC[C@@H]3c4ccc(O)c(F)c4CC[C@H]3[C@@H]1CC[C@@H]2O`, the inhibition at 0.75 h, 3 µM came out at 7.5%.

Consider `C[C@]12CC[C@@H]3c4ccc(O)cc4CC[C@H]3[C@@H]1C[C@@H](CCCBr)[C@@H]2O`, for which the inhibition at 0.75 h, 3 µM is 2%. Regarding `C[C@]12CC[C@@H]3c4cc(Br)c(O)c(Br)c4CC[C@H]3[C@@H]1CC[C@@H]2O`, the inhibition at 0.75 h, 3 µM was 1%. Still for that read-out and setting: in the case of `C[C@]12CC[C@@H]3c4ccccc4CC[C@H]3[C@@H]1CCC2=O` it was 11.3%; in that of `C[C@]12CC[C@@H]3c4cc(Br)c(O)cc4CC[C@H]3[C@@H]1CC[C@@H]2O`, 22.6%; in that of `C[C@]12CC[C@@H]3c4ccc(OC(N)=O)cc4CC[C@H]3[C@@H]1CCC2=O`, 9.9%.

`COc1cc2c(cc1OS(N)(=O)=O)CC[C@@H]1[C@@H]2CC[C@]2(C)[C@@H](O)CC[C@@H]12`: the inhibition at 0.75 h, 3 µM was 23.8%. On the same count and under the same terms, in the case of `C[C@]12CC[C@@H]3c4ccc(O)c(Br)c4CC[C@H]3[C@@H]1CC[C@@H]2O` it was 29%. Consider `Cc1cc2c(cc1O)CC[C@@H]1[C@@H]2CC[C@]2(C)[C@@H](O)CC[C@@H]12`, for which the inhibition at 0.75 h, 3 µM amounted to 1%. As to `C[C@]12CC[C@@H]3c4ccc(OS(=O)(=O)O)cc4CC[C@H]3[C@@H]1CC[C@@H]2O`, the inhibition at 0.75 h, 3 µM was 0.9%. On the same count and under the same terms, in the case of `COc1cc2c(cc1OS(N)(=O)=O)CC[C@@H]1[C@@H]2CC[C@@]2(C)[C@H]1CC[C@@]2(O)Cc1ccccc1` it was 7.7%; in that of `C#C[C@]1(O)CC[C@H]2[C@@H]3CCc4c(ccc(O)c4Br)[C@H]3CC[C@@]21C`, 7.5%. On the same count and under the same terms, the value for `C[C@]12CC[C@@H]3c4ccc(C5CO5)cc4CC[C@H]3[C@@H]1CCC2=O` (stereo not given in full) was 12.4%; that for `CCCCCCCN(C=O)[C@H]1CC[C@H]2[C@@H]3CCc4cc(O)ccc4[C@H]3CC[C@]12C` was 0%; that for `C[C@]12CC[C@@H]3c4ccc(O)cc4C(=O)C[C@H]3[C@@H]1CC[C@@H]2O` was 9.7%. Still for that read-out and setting: in the case of `C[C@]12CC[C@@H]3c4ccc(OS(N)(=O)=O)cc4CC[C@H]3[C@@H]1CC[C@@]2(O)CN1CCN(C(=O)[C@H](Cc2ccccc2)NC(=O)CCC2CCCC2)CC1` it was 14.9%; in that of `Cc1ccc(S(=O)(=O)/N=S(\C)c2ccc3c(c2)CC[C@@H]2[C@@H]3CC[C@]3(C)C(=O)CC[C@@H]23)cc1` (stereo not given in full), 0.1%.

`C[C@]12CC[C@@H]3c4ccc(OS(N)(=O)=O)cc4CC[C@H]3[C@@H]1C[C@H](CCCNC(=O)C(Cc1ccccc1)NC(=O)Cc1ccccc1)[C@@H]2O` (stereo not given in full): the inhibition at 0.75 h, 3 µM came to 22.8%. Regarding `C[C@]12CC[C@@H]3c4ccc([N+](C)(C)[O-])cc4CC[C@H]3[C@@H]1CCC2=O`, the inhibition at 0.75 h, 3 µM is 36.6%.

With `C[C@]12CC[C@@H]3c4cc([N+](=O)[O-])c(O)c([N+](=O)[O-])c4CC[C@H]3[C@@H]1CC[C@@H]2O`, the inhibition at 0.75 h, 3 µM was 11.4%. Same read-out and setting: in the case of `C[C@]12CC[C@@H]3c4ccccc4C(=O)C[C@H]3[C@@H]1CCC2=O` it was 16%; in that of `COc1cc2c(cc1O)CC[C@@H]1[C@@H]2CC[C@@]2(C)[C@H]1CC[C@@]2(O)Cc1ccccc1`, 0%; in that of `C#C[C@]1(O)CC[C@H]2[C@@H]3CCc4cc(O)c(Br)cc4[C@H]3CC[C@@]21C`, 8.4%. The same measure, in the same setting: in the case of `C[C@]12CC[C@@H]3c4ccc(OS(N)(=O)=O)cc4CC[C@H]3[C@@H]1C[C@H](CCCNC(=O)C1CCCN1C(=O)Cc1ccccc1)[C@@H]2O` (stereo not given in full) it was 21.4%; in that of `C[C@]12CC[C@@H]3c4ccccc4C(O)C[C@H]3[C@@H]1CC[C@@H]2O` (stereo not given in full), 20%. The same measure, in the same setting: in the case of `C[C@]12CC[C@@H]3c4ccc(NC(=O)O)cc4CC[C@H]3[C@@H]1CCC2=O` it was 8.9%; in that of `CCCCCCCN(C=O)[C@H]1CC[C@H]2[C@@H]3CCc4cc(OC)ccc4[C@H]3CC[C@]12C`, 3.5%.

Regarding `C[C@]12CC[C@@H]3c4ccc(O)cc4CC[C@H]3[C@@H]1C[C@H](CCCNC(=O)C(Cc1ccccc1)NC(=O)Cc1ccccc1)[C@@H]2O` (stereo not given in full), the inhibition at 0.75 h, 3 µM was 7.7%. `C[C@]12CC[C@@H]3c4ccc(N)cc4CC[C@H]3[C@@H]1CCC2=O`: the inhibition at 0.75 h, 3 µM was determined as 16.2%. As to `C[C@]12CC[C@@H]3c4ccc(C(=O)O)cc4CC[C@H]3[C@@H]1CCC2=O`, the inhibition at 0.75 h, 3 µM was 11.5%. Still for that read-out and setting: the value for `C[C@]12CC[C@@H]3c4ccc(OCCBr)cc4CC[C@H]3[C@@H]1CC[C@@H]2O` was 11.1%.

For the compound `C[C@]12CC[C@@H]3c4ccc(S)cc4CC[C@H]3[C@@H]1CCC2=O`, the inhibition at 0.75 h, 3 µM lay within 61.1 to 61.6%.

`CCc1ccc2c(c1)CC[C@@H]1[C@@H]2CC[C@]2(C)C(=O)CC[C@@H]12`: the inhibition at 0.75 h, 3 µM is 42.8%. As for `CC(=O)c1ccc(C(=O)N2CCCC2C(=O)NCCCCCCCCCCC[C@@H]2Cc3cc(O)ccc3[C@H]3CC[C@]4(C)[C@@H](O)CC[C@H]4[C@H]23)cc1` (stereo not given in full), the inhibition at 0.75 h, 3 µM amounted to 22.1%. Same read-out and setting: the value for `CNS(=O)(=O)Oc1cc2c(cc1OS(=O)(=O)NC)[C@H]1CC[C@]3(C)C(=O)CC[C@H]3[C@@H]1CC2` was 30.3%; that for `CCS(=O)(=O)Oc1ccc2c(c1)CC[C@@H]1[C@@H]2CC[C@]2(C)C(=O)CC[C@@H]12` was 0.3%. For `CCCCCCCN[C@H]1CC[C@H]2[C@@H]3CCc4ccc(OC)cc4[C@H]3CC[C@]12C`, the inhibition at 0.75 h, 3 µM came to 9.4%. `COc1cc2c(cc1O)CC[C@@H]1[C@@H]2CC[C@]2(C)C(=O)CC[C@@H]12`: the inhibition at 0.75 h, 3 µM is 13.2%.

As for `C[C@]12CC[C@@H]3c4ccc(O)cc4CC[C@H]3[C@@H]1CC[C@@]21CCC(=O)O1`, the inhibition at 0.75 h, 3 µM was 13.9%. Take `COc1cc2c(cc1O)CC[C@@H]1[C@@H]2CC[C@]2(C)[C@@H](O)CC[C@@H]12` [2-METHOXYESTRADIOL]: the inhibition at 0.75 h, 3 µM was found to be 4.4%.

For `O=c1cc(-c2ccccc2)oc2c1ccc1ccccc12` [ALPHA-NAPHTHOFLAVONE], the inhibition at 0.75 h, 3 µM worked out at 89.2%. For the compound `C[C@]12CC[C@@H]3c4ccc(OS(N)(=O)=O)cc4CC[C@H]3[C@@H]1CCC2=O` [EMATE], the inhibition at 0.75 h, 3 µM came out at 8.6%.

For the next data set, the target named is T2, Cytochrome P450 1B1 (Homo sapiens, UniProt Q16678).
T2 sequence (Q16678 whole entry): T1 sequence (Q16678 whole entry)
Briefly: Inhibition of recombinant human CYP1B1 expressed in bacterial microsomes co-expressing P450 reductase using 7-ethyl-O-resorufin as substrate after 45 mins in presence of NADPH by fluorescence assay.
Settings: not given
As to `C[C@]12CC[C@@H]3c4ccc(S)cc4CC[C@H]3[C@@H]1CCC2=O`, the half-maximal inhibitory concentration (IC50) (commonly the concentration that inhibits the measured activity by half) amounted to 3.4 µM.
